Measured values reported in PubChem BioAssay AID1745844 (Carcinogenic Potency Database (CPDB), 2022).
Calls of active or inactive are those of the source. How the calls were made is not given here.

Test system: rodent lifetime carcinogenesis bioassay, tumor incidence TD50
Experiment: chronic cancer bioassays in animals – CPDB, compiled studies (AID 1745844)

`C1COCCO1` gave a TD50 (mouse, strain B6C3F1, females, in drinking water, site: any site (literature study), lesion: several types, types named in the paper, dosed 90 weeks, study length 90 weeks) of 847 mg/kg/day, a TD50 (mouse, strain B6C3F1, females, in drinking water, site: liver, lesion: hepatocellular adenoma + hepatocellular carcinoma + neoplastic nodule, dosed 90 weeks, study length 90 weeks) of 594 mg/kg/day and a TD50 (mouse, strain B6C3F1, females, in drinking water, site: liver, lesion: hepatocellular adenoma + hepatocellular carcinoma, dosed 90 weeks, study length 90 weeks) of 594 mg/kg/day. It also gave a TD50 (mouse, strain B6C3F1, females, in drinking water, site: liver, lesion: hepatocellular carcinoma, dosed 90 weeks, study length 90 weeks) of 938 mg/kg/day, a TD50 (mouse, strain B6C3F1, females, in drinking water, site: lung, lesion: alveolar/bronchiolar adenoma + alveolar/bronchiolar carcinoma, dosed 90 weeks, study length 90 weeks) of 71900 mg/kg/day and a TD50 (mouse, strain B6C3F1, males, in drinking water, site: all sites, lesion: hemangioma + hemangiosarcoma, dosed 90 weeks, study length 91 weeks) of 3150 mg/kg/day. It also gave a TD50 (mouse, strain B6C3F1, males, in drinking water, site: all sites, lesion: lymphoma, dosed 90 weeks, study length 91 weeks) of 3930 mg/kg/day, a TD50 (mouse, strain B6C3F1, males, in drinking water, site: any site (literature study), lesion: several types, types named in the paper, dosed 90 weeks, study length 91 weeks) of 1880 mg/kg/day and a TD50 (mouse, strain B6C3F1, males, in drinking water, site: liver, lesion: hepatocellular adenoma + hepatocellular carcinoma + neoplastic nodule, dosed 90 weeks, study length 91 weeks) of 1460 mg/kg/day. The TD50 (mouse, strain B6C3F1, males, in drinking water, site: liver, lesion: hepatocellular adenoma + hepatocellular carcinoma, dosed 90 weeks, study length 91 weeks) was 1460 mg/kg/day, the TD50 (mouse, strain B6C3F1, males, in drinking water, site: liver, lesion: hepatocellular carcinoma, dosed 90 weeks, study length 91 weeks) was 1420 mg/kg/day and the TD50 (mouse, strain BDF1, females, in drinking water, site: liver, lesion: hepatocellular adenoma, dosed 104 weeks, study length 105 weeks) was 83.1 mg/kg/day. For the same molecule, the TD50 (mouse, strain BDF1, females, in drinking water, site: liver, lesion: hepatocellular carcinoma, dosed 104 weeks, study length 105 weeks) was 404 mg/kg/day, the TD50 (mouse, strain BDF1, females, in drinking water, site: liver, lesion: several types, types named in the paper, dosed 104 weeks, study length 105 weeks) was 65.5 mg/kg/day and the TD50 (mouse, strain BDF1, females, in drinking water, site: nasal cavity, lesion: adenocarcinoma, dosed 104 weeks, study length 105 weeks) was 72100 mg/kg/day. The TD50 (mouse, strain BDF1, males, in drinking water, site: liver, lesion: hepatocellular adenoma, dosed 104 weeks, study length 105 weeks) was 519 mg/kg/day, the TD50 (mouse, strain BDF1, males, in drinking water, site: liver, lesion: hepatocellular carcinoma, dosed 104 weeks, study length 105 weeks) was 1040 mg/kg/day and the TD50 (mouse, strain BDF1, males, in drinking water, site: liver, lesion: several types, types named in the paper, dosed 104 weeks, study length 105 weeks) was 982 mg/kg/day. It also gave a TD50 (mouse, strain BDF1, males, in drinking water, site: nasal cavity, lesion: esthesioneuroepithelioma, dosed 104 weeks, study length 105 weeks) of 60100 mg/kg/day, a TD50 (rat, strain Charles River CD (Sprague-Dawley), males, in drinking water, site: nasal cavity, lesion: squamous-cell carcinoma, dosed 56 weeks, study length 69 weeks) of 2950 mg/kg/day and a TD50 (rat, strain F344/DuCrj, females, in drinking water, site: liver, lesion: hepatocellular adenoma, dosed 104 weeks, study length 105 weeks) of 182 mg/kg/day. For the same molecule, the TD50 (rat, strain F344/DuCrj, females, in drinking water, site: liver, lesion: hepatocellular carcinoma, dosed 104 weeks, study length 105 weeks) was 1120 mg/kg/day, the TD50 (rat, strain F344/DuCrj, females, in drinking water, site: liver, lesion: several types, types named in the paper, dosed 104 weeks, study length 105 weeks) was 167 mg/kg/day and the TD50 (rat, strain F344/DuCrj, females, in drinking water, site: mammary gland, lesion: adenoma, dosed 104 weeks, study length 105 weeks) was 772 mg/kg/day. For the same molecule, the TD50 (rat, strain F344/DuCrj, females, in drinking water, site: nasal cavity, lesion: esthesioneuroepithelioma, dosed 104 weeks, study length 105 weeks) was 12200 mg/kg/day, the TD50 (rat, strain F344/DuCrj, females, in drinking water, site: nasal cavity, lesion: malignant tumor, dosed 104 weeks, study length 105 weeks) was 1430 mg/kg/day and the TD50 (rat, strain F344/DuCrj, females, in drinking water, site: nasal cavity, lesion: squamous-cell carcinoma, dosed 104 weeks, study length 105 weeks) was 1650 mg/kg/day. It also gave a TD50 (rat, strain F344/DuCrj, males, in drinking water, site: liver, lesion: hepatocellular adenoma, dosed 104 weeks, study length 105 weeks) of 279 mg/kg/day, a TD50 (rat, strain F344/DuCrj, males, in drinking water, site: liver, lesion: hepatocellular carcinoma, dosed 104 weeks, study length 105 weeks) of 676 mg/kg/day and a TD50 (rat, strain F344/DuCrj, males, in drinking water, site: liver, lesion: several types, types named in the paper, dosed 104 weeks, study length 105 weeks) of 189 mg/kg/day. The TD50 (rat, strain F344/DuCrj, males, in drinking water, site: mammary gland, lesion: fibroadenoma, dosed 104 weeks, study length 105 weeks) was 3070 mg/kg/day, the TD50 (rat, strain F344/DuCrj, males, in drinking water, site: nasal cavity, lesion: esthesioneuroepithelioma, dosed 104 weeks, study length 105 weeks) was 10600 mg/kg/day and the TD50 (rat, strain F344/DuCrj, males, in drinking water, site: nasal cavity, lesion: malignant tumor, dosed 104 weeks, study length 105 weeks) was 1440 mg/kg/day. For the same molecule, the TD50 (rat, strain F344/DuCrj, males, in drinking water, site: nasal cavity, lesion: rhabdomyosarcoma, dosed 104 weeks, study length 105 weeks) was 10600 mg/kg/day, the TD50 (rat, strain F344/DuCrj, males, in drinking water, site: nasal cavity, lesion: sarcoma, NOS, dosed 104 weeks, study length 105 weeks) was 5270 mg/kg/day and the TD50 (rat, strain F344/DuCrj, males, in drinking water, site: nasal cavity, lesion: squamous-cell carcinoma, dosed 104 weeks, study length 105 weeks) was 3490 mg/kg/day. It also gave a TD50 (rat, strain F344/DuCrj, males, in drinking water, site: peritoneum, lesion: mesothelioma, dosed 104 weeks, study length 105 weeks) of 246 mg/kg/day, a TD50 (rat, strain F344/DuCrj, males, in drinking water, site: subcutaneous tissue, lesion: fibroma, dosed 104 weeks, study length 105 weeks) of 922 mg/kg/day and a TD50 (rat, strain Osborne-Mendel, females, in drinking water, site: any site (literature study), lesion: several types, types named in the paper, dosed 110 weeks, study length 111 weeks) of 40.5 mg/kg/day. It also gave a TD50 (rat, strain Osborne-Mendel, females, in drinking water, site: liver + nasal turbinate, lesion: hepatocellular adenoma + squamous-cell carcinoma, dosed 110 weeks, study length 111 weeks) of 126 mg/kg/day, a TD50 (rat, strain Osborne-Mendel, females, in drinking water, site: liver, lesion: hepatocellular adenoma + hepatocellular carcinoma + neoplastic nodule, dosed 110 weeks, study length 111 weeks) of 124 mg/kg/day and a TD50 (rat, strain Osborne-Mendel, females, in drinking water, site: liver, lesion: hepatocellular adenoma, dosed 110 weeks, study length 111 weeks) of 160 mg/kg/day. It also gave a TD50 (rat, strain Osborne-Mendel, females, in drinking water, site: nasal turbinate, lesion: squamous-cell carcinoma, dosed 110 weeks, study length 111 weeks) of 476 mg/kg/day, a TD50 (rat, strain Osborne-Mendel, males, in drinking water, site: any site (literature study), lesion: several types, types named in the paper, dosed 110 weeks, study length 110 weeks) of 114 mg/kg/day and a TD50 (rat, strain Osborne-Mendel, males, in drinking water, site: liver, lesion: hepatocellular adenoma + hepatocellular carcinoma + neoplastic nodule, dosed 110 weeks, study length 110 weeks) of 796 mg/kg/day. For the same molecule, the TD50 (rat, strain Osborne-Mendel, males, in drinking water, site: nasal turbinate, lesion: squamous-cell carcinoma, dosed 110 weeks, study length 110 weeks) was 168 mg/kg/day, the TD50 (rat, strain Sherman, both sexes, in drinking water, site: liver, lesion: hepatocellular carcinoma, dosed 104 weeks, study length 104 weeks) was 2500 mg/kg/day and the TD50 (rat, strain Sherman, both sexes, in drinking water, site: liver, lesion: several types, types named in the paper, dosed 104 weeks, study length 104 weeks) was 2120 mg/kg/day. The TD50 (rat, strain Sherman, both sexes, in drinking water, site: nasal turbinate, lesion: squamous-cell carcinoma, dosed 104 weeks, study length 104 weeks) was 15900 mg/kg/day, the TD50 (rat, strain Wistar, both sexes, in drinking water, site: any site (literature study), lesion: several types, types named in the paper, dosed 63 weeks, study length 64 weeks) was 690 mg/kg/day and the TD50 (rat, strain Wistar, both sexes, in drinking water, site: liver, lesion: hepatoma, dosed 63 weeks, study length 64 weeks) was 515 mg/kg/day.

With `CC1=C(/C=C/C(C)=C/C=C/C(C)=C/C=C/C=C(C)/C=C/C=C(C)/C=C/C2=C(C)CCCC2(C)C)C(C)(C)CCC1` the TD50 (mouse, strain Charles River CD1, females, in feed, site: liver, lesion: hepatocellular adenoma, dosed 105 weeks, study length 105 weeks) was 15900 mg/kg/day (inactive), the carcinogen call (mouse, strain Charles River CD1, females, in feed, site: liver, lesion: hepatocellular carcinoma, dosed 105 weeks, study length 105 weeks) was “negative (inactive)” and the carcinogen call (mouse, strain Charles River CD1, females, in feed, site: lung, lesion: adenocarcinoma, dosed 105 weeks, study length 105 weeks) was “negative (inactive)”. For the same molecule, the TD50 (mouse, strain Charles River CD1, females, in feed, site: lung, lesion: adenoma, dosed 105 weeks, study length 105 weeks) was 93600 mg/kg/day (inactive), the carcinogen call (mouse, strain Charles River CD1, males, in feed, site: liver, lesion: hepatocellular adenoma, dosed 105 weeks, study length 105 weeks) was “negative (inactive)” and the TD50 (mouse, strain Charles River CD1, males, in feed, site: liver, lesion: hepatocellular carcinoma, dosed 105 weeks, study length 105 weeks) was 49700 mg/kg/day (inactive). For the same molecule, the TD50 (mouse, strain Charles River CD1, males, in feed, site: lung, lesion: adenocarcinoma, dosed 105 weeks, study length 105 weeks) was 26400 mg/kg/day (inactive) and the TD50 (mouse, strain Charles River CD1, males, in feed, site: lung, lesion: adenoma, dosed 105 weeks, study length 105 weeks) was 71400 mg/kg/day (inactive).

In the case of `C[N+](C)(C)CCCl`, the TD50 (mouse, strain B6AKF1, females, oral dosing, site: any site (literature study), lesion: several types, types named in the paper, dosed 76 weeks, study length 76 weeks) is reported as 33.5 mg/kg/day, the TD50 (mouse, strain B6AKF1, males, oral dosing, site: any site (literature study), lesion: several types, types named in the paper, dosed 76 weeks, study length 76 weeks) is reported as 21.3 mg/kg/day and the TD50 (mouse, strain B6AKF1, males, oral dosing, site: liver, lesion: hepatoma, dosed 76 weeks, study length 76 weeks) is reported as 11.4 mg/kg/day. The carcinogen call (mouse, strain B6C3F1, females, in feed, site: any site (literature study), lesion: several types, types named in the paper, dosed 102 weeks, study length 102 weeks) was “negative (inactive)”, the TD50 (mouse, strain B6C3F1, females, oral dosing, site: any site (literature study), lesion: several types, types named in the paper, dosed 76 weeks, study length 76 weeks) was 57.4 mg/kg/day and the TD50 (mouse, strain B6C3F1, males, in feed, site: any site (literature study), lesion: several types, types named in the paper, dosed 102 weeks, study length 102 weeks) was 3240 mg/kg/day (inactive). It also gave a TD50 (mouse, strain B6C3F1, males, in feed, site: liver, lesion: hepatocellular adenoma + hepatocellular carcinoma + neoplastic nodule, dosed 102 weeks, study length 102 weeks) of 599 mg/kg/day, a TD50 (mouse, strain B6C3F1, males, oral dosing, site: any site (literature study), lesion: several types, types named in the paper, dosed 76 weeks, study length 76 weeks) of 5.19 mg/kg/day and a TD50 (mouse, strain B6C3F1, males, oral dosing, site: liver, lesion: hepatoma, dosed 76 weeks, study length 76 weeks) of 9.38 mg/kg/day. For the same molecule, the carcinogen call (rat, strain Fischer 344, females, in feed, site: any site (literature study), lesion: several types, types named in the paper, dosed 108 weeks, study length 108 weeks) was “negative (inactive)”, the TD50 (rat, strain Fischer 344, females, in feed, site: liver, lesion: hepatocellular adenoma + hepatocellular carcinoma + neoplastic nodule, dosed 108 weeks, study length 108 weeks) was 8090 mg/kg/day and the TD50 (rat, strain Fischer 344, males, in feed, site: any site (literature study), lesion: several types, types named in the paper, dosed 108 weeks, study length 108 weeks) was 3360 mg/kg/day. The TD50 (rat, strain Fischer 344, males, in feed, site: pancreatic islets, lesion: islet-cell adenoma, dosed 108 weeks, study length 108 weeks) was 458 mg/kg/day (inactive).

With `CN(N=O)c1ccc(N=O)cc1` the TD50 (rat, strain CB, males, i.p., site: liver, lesion: hepatoma, dosed 26 weeks, study length 86 weeks) was 1.5 mg/kg/day (inactive) and the TD50 (rat, strain CB, males, i.p., site: peritoneal cavity, lesion: several types, types named in the paper, dosed 26 weeks, study length 86 weeks) was 1.3 mg/kg/day.
